The target of series [1] is BCL6 in Karpas 422 cells (Homo sapiens, UniProt P41182). As to the kind of experiment: cell-based. On the procedure:
3.2 Mesoscale Discovery (MSD) Degradation Assay
An MSD assay was developed for screening of compounds to determine the degradation of endogenous BCL6 in OCI-Ly1 cells. Briefly, test compounds in DMSO or DMSO alone to a total of 1332.5 nL/well were dispensed to a 96-well Nunc™ Edge 2 plate (ThermoFisher Scientific, 267544) using an Echo® 550 acoustic […]
supplemented with 10% heat-inactivated fetal bovine serum (Sera Plus, PAN Biotech, P30-3702) were […]
incubation at 37 °C + 5% CO2 the plate was centrifuged at 300 x g for 5 minutes. […]
plate washer for all wash and aspiration steps, media was removed and cells were rinsed with PBS, centrifuged as before and PBS removed. Cells were lysed in 50 µL ice-cold lysis buffer at pH 7.4 containing 50 mM Tris-HCl, 150 mM NaCl, 1 % Triton X-100 (v/v), 1 mM PMSF, 1 mM activated sodium vanadate, 1 mM EDTA, phosphatase inhibitors 2 and 3 (1:50 dilution) and protease inhibitor cocktail (1:100 dilution).
20 °C or continuing the assay. A 96-well MSD standard bind plate (MSD, L15XA-3) which was coated overnight with 1 µg/mL anti-human BCL6 goat antibody in PBS (R&D Systems, AF5046) was blocked in 3% BSA in TBS + 0.1% Tween-20 for 1 hour with shaking. Wells were emptied thoroughly before 40 µL/well of lysate was transferred from the cell plate. The MSD plate was incubated at RT for 1 hour with shaking then washed three times with TBS + 0.1 % Tween-20. Antibodies were prepared in TBS + 0.1% Tween-20 + 1% BSA. Anti-human BCL6 rabbit antibody (Cell Signalling Technology, 14895S) was added at 1:100 dilution at 25 µL/well. The plate was incubated and washed as before. MSD Sulfo-tag anti-rabbit detection antibody (MSD, R32AB-1) at 1:1000 dilution at 25 µL/well was added. The plate was incubated and washed as before and MSD Gold read buffer (MSD R92TG) at 1:1 dilution with water at 150 µL/well was added. The plate was read within 10 minutes on the MSD Quickplex reader. The % inhibition at each […]
3.3 Cell proliferation assay
Aldrich) supplemented with 10% FBS (Gibco). […]
transferred onto the cells.
Assay plates containing cells […]

Series [2] concerns the target T1, CHRM3 (Homo sapiens, UniProt P20309). The series can be described thus: SAFETYScan GPCR Calcium Flux, Agonist. The series is classed as cell-based. From the text: (§1) Supplement jm1c02175_si_002.xlsx, sheet "SAFETYScan" | column: RC50 (uM); Max Response
For series [3], the target named is T2, EDNRA (Homo sapiens, UniProt P25101).
T2 sequence (P25101 21-427): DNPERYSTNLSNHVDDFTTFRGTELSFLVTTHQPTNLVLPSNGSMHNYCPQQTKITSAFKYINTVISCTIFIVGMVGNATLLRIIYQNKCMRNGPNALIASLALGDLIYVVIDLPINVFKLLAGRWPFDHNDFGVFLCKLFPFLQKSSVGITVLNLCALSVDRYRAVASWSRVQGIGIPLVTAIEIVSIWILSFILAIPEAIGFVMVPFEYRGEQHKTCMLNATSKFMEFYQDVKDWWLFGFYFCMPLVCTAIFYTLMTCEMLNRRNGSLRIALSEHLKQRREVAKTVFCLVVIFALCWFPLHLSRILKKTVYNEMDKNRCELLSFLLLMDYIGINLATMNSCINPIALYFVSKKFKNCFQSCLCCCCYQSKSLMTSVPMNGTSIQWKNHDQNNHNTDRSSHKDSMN
As to the kind of experiment: SAFETYScan GPCR Calcium Flux, Agonist. The series is classed as cell-based.
Excerpt: as §1
In general terms: Calcium assays in cells follow changes in intracellular calcium, usually with a dye or a luminescent sensor.

For series [4], the target named is HTR2A (Homo sapiens, UniProt P28223). As to the kind of experiment: SAFETYScan GPCR Calcium Flux, Agonist. The series is classed as cell-based.
Excerpt: as §1

Series [5] concerns the target T3, CCKAR (Homo sapiens, UniProt P32238).
T3 sequence (P32238 1-428): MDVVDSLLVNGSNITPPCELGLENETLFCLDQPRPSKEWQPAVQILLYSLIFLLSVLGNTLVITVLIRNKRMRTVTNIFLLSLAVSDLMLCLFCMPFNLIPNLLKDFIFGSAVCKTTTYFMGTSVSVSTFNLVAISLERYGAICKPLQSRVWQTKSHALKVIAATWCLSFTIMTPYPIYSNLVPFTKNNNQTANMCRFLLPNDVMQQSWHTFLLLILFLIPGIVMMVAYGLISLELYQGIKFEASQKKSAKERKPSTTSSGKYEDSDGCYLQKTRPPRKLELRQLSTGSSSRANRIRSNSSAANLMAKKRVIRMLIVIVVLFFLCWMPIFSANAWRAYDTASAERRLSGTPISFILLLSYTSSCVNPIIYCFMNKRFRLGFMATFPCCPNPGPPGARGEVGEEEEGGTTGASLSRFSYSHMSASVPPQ
As to the kind of experiment: SAFETYScan GPCR Calcium Flux, Antagonist. The format is cell-based.
Excerpt: as §1

Series [6] concerns the target ADORA2A (Homo sapiens, UniProt P29274). The series can be described thus: SAFETYScan GPCR Calcium Flux, Antagonist. The format is cell-based.
Excerpt: as §1

In series [7] the target is T1, CHRM3. As to the kind of experiment: SAFETYScan GPCR Calcium Flux, Antagonist. The format is cell-based.
Excerpt: as §1

The target of series [8] is AVPR1A (Homo sapiens, UniProt P37288). The series can be described thus: SAFETYScan GPCR Calcium Flux, Antagonist. The series is classed as cell-based.
Excerpt: as §1

A short description of series [9]: Microsomal clearance assay (RLM). The series is classed as in vitro ADME. Conditions: rat liver microsomes, 1 μM compound. On the procedure:
6. Supplementary experimental: in vitro DMPK assays
6.1 Microsomal clearance assay
Microsomal clearance was determined in female CD1 mice, female Sprague–Dawley rats, and mixed gender human liver microsomes obtained from BioIVT (Peterborough, U.K.) following incubation of 1 μM compound at 37 °C in 0.5 mg/mL microsomal protein, 3 mmol/L MgCl2, 1 mmol/L NADPH, 2.5 mmol/L and 10 mmol/L phosphate buffer (pH 7.4) (all purchased from Sigma-Aldrich, Gillingham, U.K). Reactions were started by addition of the cofactors following 10 min preincubation of microsomes with test compound and were terminated at −1, 0, 5, 10, 15, and 30 min with three volumes of ice-cold methanol containing internal standard. Samples were centrifuged at 2800g for 30 min at 4 °C and the supernatants analyzed.
Control incubations were prepared as above with omission of cofactors. Compound measurements were […]
separation with a 3 min gradient of 0.1% formic acid in methanol on a Kinetex C18, 50 × 2.1 mm 2.6 μm UPLC column (Phenomenex, Macclesfield, UK). […]

T1 sequence (P20309 whole entry): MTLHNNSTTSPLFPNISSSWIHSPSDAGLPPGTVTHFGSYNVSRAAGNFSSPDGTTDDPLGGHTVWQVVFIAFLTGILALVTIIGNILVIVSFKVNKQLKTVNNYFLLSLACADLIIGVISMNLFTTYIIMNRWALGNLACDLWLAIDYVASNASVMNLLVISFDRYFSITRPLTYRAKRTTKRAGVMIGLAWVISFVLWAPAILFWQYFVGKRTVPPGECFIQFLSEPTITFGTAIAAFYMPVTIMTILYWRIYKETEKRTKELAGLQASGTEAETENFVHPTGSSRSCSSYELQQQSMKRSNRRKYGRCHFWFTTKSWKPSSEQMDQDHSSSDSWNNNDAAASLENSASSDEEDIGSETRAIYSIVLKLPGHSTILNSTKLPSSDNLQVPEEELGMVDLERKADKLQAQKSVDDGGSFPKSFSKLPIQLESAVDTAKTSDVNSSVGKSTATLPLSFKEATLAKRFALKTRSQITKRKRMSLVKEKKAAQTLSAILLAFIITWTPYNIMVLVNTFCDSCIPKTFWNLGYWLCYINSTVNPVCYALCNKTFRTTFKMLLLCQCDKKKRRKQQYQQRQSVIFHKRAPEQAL
ADORA2A, sequence (P29274 whole entry): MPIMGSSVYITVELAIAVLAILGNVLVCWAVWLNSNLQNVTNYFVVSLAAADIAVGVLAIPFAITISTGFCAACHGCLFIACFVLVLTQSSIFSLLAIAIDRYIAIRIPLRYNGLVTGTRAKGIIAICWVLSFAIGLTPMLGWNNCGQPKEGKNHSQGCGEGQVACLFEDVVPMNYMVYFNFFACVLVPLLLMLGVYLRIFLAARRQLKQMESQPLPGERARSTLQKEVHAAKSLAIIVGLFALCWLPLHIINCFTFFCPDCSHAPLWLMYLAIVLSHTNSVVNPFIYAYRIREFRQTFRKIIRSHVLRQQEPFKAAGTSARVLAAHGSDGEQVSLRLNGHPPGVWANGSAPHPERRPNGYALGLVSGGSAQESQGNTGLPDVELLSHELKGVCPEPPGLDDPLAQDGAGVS
HTR2A, sequence (P28223 whole entry): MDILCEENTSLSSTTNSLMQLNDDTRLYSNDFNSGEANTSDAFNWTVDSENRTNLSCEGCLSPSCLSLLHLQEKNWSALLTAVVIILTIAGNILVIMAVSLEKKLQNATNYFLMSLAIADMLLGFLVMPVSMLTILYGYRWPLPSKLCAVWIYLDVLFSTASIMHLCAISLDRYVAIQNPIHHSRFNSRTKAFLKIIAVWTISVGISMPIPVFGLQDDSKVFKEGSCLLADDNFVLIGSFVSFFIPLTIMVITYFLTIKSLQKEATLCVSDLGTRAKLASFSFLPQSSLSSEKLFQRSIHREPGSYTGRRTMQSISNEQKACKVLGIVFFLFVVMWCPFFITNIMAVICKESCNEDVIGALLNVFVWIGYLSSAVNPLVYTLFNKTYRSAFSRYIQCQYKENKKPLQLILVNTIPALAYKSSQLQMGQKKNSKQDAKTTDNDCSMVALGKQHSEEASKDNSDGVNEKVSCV
AVPR1A, sequence (P37288 whole entry): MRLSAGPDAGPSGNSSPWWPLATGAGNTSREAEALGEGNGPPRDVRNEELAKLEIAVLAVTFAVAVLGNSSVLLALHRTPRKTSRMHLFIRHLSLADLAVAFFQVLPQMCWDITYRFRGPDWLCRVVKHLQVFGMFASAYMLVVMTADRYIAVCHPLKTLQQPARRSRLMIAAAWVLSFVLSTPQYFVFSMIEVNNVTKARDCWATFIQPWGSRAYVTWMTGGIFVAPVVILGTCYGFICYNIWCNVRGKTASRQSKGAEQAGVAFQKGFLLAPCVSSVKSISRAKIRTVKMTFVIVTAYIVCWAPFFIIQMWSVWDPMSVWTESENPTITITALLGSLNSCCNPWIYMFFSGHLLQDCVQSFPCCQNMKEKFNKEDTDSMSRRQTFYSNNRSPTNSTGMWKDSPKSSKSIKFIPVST

As a reminder, the Dmax is the largest share of the target that was removed. A word on the DC50: it is the concentration at which degradation of the target reaches its halfway point. In general, EC50 refers to the midpoint of the concentration-response curve. As usually defined, the IC50 is the midpoint of a concentration-inhibition curve. As usually defined, the microsomal CLint is the capacity of the preparation to metabolise the compound, expressed as a volume cleared per time. Read a low microsomal CLint as slow turnover. For the molecule `C[C@H]1C[C@@H](O)CN(c2ncc(Cl)c(Nc3ccc4c(c3)c3c(c(=O)n4C)OCC(F)(F)[C@H](C4CC4)N3)n2)C1` [12a CCT373566, (S)-10-((5-Chloro-2-((3R,5S)-3-hydroxy-5-methylpiperidin-1-yl)pyrimidin-4-yl)amino)-2-cyclopropyl-3,3-difluoro-7-methyl-1,2,3,4-tetrahydro-[1,4]oxazepino[2,3-c]quinolin-6(7H)-one], the Dmax in [1] (KARPAS-422, read-out: MSD degrader assay [Karpas 422] Dmax) amounted to 85%. Also, the DC50 in series [1] (read-out: MSD degrader assay [Karpas 422] DC50, Karpas 422 cells) was found to be 1 nM. Moreover, the Emax in series [2] (read-out: Max Response) is 3.17%; in series [3] (read-out: Max Response), 0.25%; in series [4] (read-out: Max Response) it was 0%; in series [5] (read-out: Max Response), 0%; in series [6] (read-out: Max Response) it was 4.91%; in [7] (read-out: Max Response) it was 0%. Also, in [8] (read-out: Max Response), the Emax turned out to be 0%. Further, the EC50 in series [2] (read-out: RC50 (EC50)), in [3] (read-out: RC50 (EC50)) and in series [4] (read-out: RC50 (EC50)) was over 10 µM in each case. Besides, the IC50 in [5] (read-out: RC50 (IC50)), in [6] (read-out: RC50 (IC50)), in series [7] (read-out: RC50 (IC50)) and in [8] (read-out: RC50 (IC50)) was over 10 µM throughout. Further, the microsomal CLint at 0.5 h, 1 µM in series [9] (female, Sprague-Dawley, pH 7.4) is 3 µL/min/mg. Also, the “CLint (RLM)” value in series [9] is on record as “low clearance”.

Source of the values: publication PMC9234961 (Journal of Medicinal Chemistry, 2022).
